Measurements: US20100292183A1, “TETRACYCLINE AND USES THEREOF” (priority 2009, published 2010)

Key:
[1] = doses between 12.5 and 300 mg twice daily; cited from earlier work
[2] = test system: induced mouse models of atherosclerosis; assay: induced mouse models of atherosclerosis; type: in vivo, mice
Description: Inducing atherosclerotic plaque development in mice is disclosed in details in U.S. patent application Ser. No. 12/286,368, which is herein incorporated by reference in its entirety. These mouse models are used for testing tetracycline-acenocoumorol conjugate to determine their efficacy both on reducing progression of plaque development and symptoms of chronic inflammation. Mice purchased from vendors are used for in vivo atherosclerotic plaque development by multiple doses of plaque complexes by intra-peritoneal and intravenous routes as described U.S. patent application Ser. No. 12/286,368. […] Ovastatin, an established anti-atherosclerotic drug (Schwartz et al, 2001) is used for control purposes in these studies and administered by oral route.
Ovastatin, tetracycline, clopidogrel or any anti-coagulant individually and tetracycline-clopidogrel (0.1-5 mg/kg per day) are orally administrated to the symptomatic and asymptomatic atherosclerotic mice models for 8 to 12 weeks. Following administration of the drugs, mice with asymptomatic plaque development are euthanized and blood collected via cardiac puncture. The blood samples will be used test clotting or blood coagulation test to analyse anti-coagulation efficacy of drugs used.

| Structure (SMILES) | safety profile [1] | plaque accumulation, histochemical analysis of heart tissues ([2]; asymptomatic mice model, after treatment) | symptoms of plaque inflammation ([2]; mice with plaque induced chronic inflammation, compared to control animal without treatment) |
| --- | --- | --- | --- |
| [H]/N=C(/N)c1ccc(NCc2nc3cc(C(=O)N(CCC(=O)O)c4ccccn4)ccc3n2C)cc1 [dabigatran] | good safety profile | – | – |
| CC[C@H](C)C(=O)O[C@H]1C[C@@H](C)C=C2C=C[C@H](C)[C@H](CC[C@@H]3C[C@@H](O)CC(=O)O3)[C@H]21 [ovastatin] | – | reduced plaque accumulation | reduced symptoms of plaque inflammation |
